Measured values published in patent publication US7884083B2, “Immunomodulatory compositions, methods of making, and methods of use thereof” (Dynavax Technologies Corporation, priority 2002, dated 2011).

Experiments:
[1] = test system: human peripheral blood lymphocytes (PBMCs); assay: hPBMC assay: IFN-γ and IFN-α production by human PBMCs (ELISA); type: cell-based
K562 cells = assay: NK cell lytic activity of stimulated PBMCs against 51Cr-loaded K562 cells; type: cell-based, human; conditions: 10 μg/mL IMC, 100 μg/mL PMXB, 48 hours
Description: IMC particulate formulations were tested for NK cell stimulatory activity. PBMCs from two donors were stimulated for 48 hours with 10 μg/mL IMC (“+ISS”) 5′-[…]-3′ (SEQ ID NO:1) with or without 100 μg/mL PMXB. The PBMCs were then assayed for lytic activity against K562 cells loaded with ^51Cr as target cells. For controls, K562 cells were cultured alone, K562 cells were lysed with Triton and K562 cells were stimulated with untreated PBMC cells. Determination of ^51CR released into culture media was used to measure the extent of target cell lysis. The presence of PMXB increased the NK cell lytic activity stimulated by the IMC alone.

mouse lung cells = assay: Gene modulation in mouse lung after intranasal instillation (TAQMAN, relative cycle thresholds; Table 18); type: in vivo; set-up: Relative Cycle Thresholds (CTs), IFN-α2 / Relative Cycle Thresholds (CTs), BCA-1 / Relative Cycle Thresholds (CTs), IP-10 / Relative Cycle Thresholds (CTs), MIP-1b / Relative Cycle Thresholds (CTs), 12/15-lipoxg: reference not given here; conditions: 6 hours after intranasal instillation
Description: Modulation of a variety of genes in response to immunomodulatory formulations was measured in mouse lung cells.
Particulate formulations were produced by first preparing either a 1 mg/mL +ISS, 0.4% TWEEN® 85, 0.4% oleate solution or a 20 mg/mL HSA solution, then making that solution 5 mg/ml in PMXB. The formulations were allowed to stand for 24 hours at room temperature, then dialyzed using a 10 kDa membrane. Particulate formulations and +ISS alone (50 μL dose) were administered by intranasal instillation to lightly anesthetized mice (5 mice per group). Animals were sacrificed 6 hours after administration, lung tissue was surgically removed, and cell suspensions were made by homogenization of the lung tissue. cDNA was synthesized from RNA isolated from the cell suspensions, and RNA was quantitated using TAQMAN® Technology. The particulate formulations induced significant increases in the majority of the genes tested.

[2] = test system: plasmacytoind dendritic cells (PDCs) of human PBMCs; assay: Intracellular staining and FACS analysis of IFN-α production from PDCs; type: cell-based; conditions: double-staining cells as percentage of total PBMCs, 20 μg/mL oligonucleotide, 100 μg/mL PMXB, six hours
Description: Intracellular staining assays and FACS analysis were used to examine IFN-α production from the plasmacytoind dendritic cells (PDCs) of human PBMCs. […] For these assays, the IMC or -ISS and the polymyxin were added separately to the PBMC cell culture which contained human serum albumin. […] After the six hours, the cells were stained with a fluorescently labeled PDC marker, anti-BCDA-2 labeled with FITC, and with anti-IFN-α labeled with PE. FACS analysis of the labeled cells was performed.

[3] = Donor 198, no Time given, 20 μg/ml oligonucleotide
[4] = Donor 199, no Time given, 20 μg/ml oligonucleotide
[5] = Donor 28212, Controls, 20 μg/ml oligonucleotide, 100 μg/ml polymyxin
[6] = Donor 28213, Controls, 20 μg/ml oligonucleotide, 100 μg/ml polymyxin
[7] = Donor 28232, no Time given, 20 μg/ml oligonucleotide, 100 μg/ml polymyxin
[8] = Donor 28233, no Time given, 20 μg/ml oligonucleotide, 100 μg/ml polymyxin
[9] = Donor # 9, 20 μg/ml oligonucleotide, 100 μg/ml PMXB, 24 hours
[10] = Donor # 37, 20 μg/ml oligonucleotide, 100 μg/ml PMXB, 24 hours
[11] = Donor # 86, 20 μg/ml oligonucleotide, 100 μg/ml PMXB, 24 hours
[12] = Donor # 87, 20 μg/ml oligonucleotide, 100 μg/ml PMXB, 24 hours
[13] = Donor # 88, 20 μg/ml oligonucleotide, 100 μg/ml PMXB, 24 hours
[14] = Donor # 89, 20 μg/ml oligonucleotide, 100 μg/ml PMXB, 24 hours
[15] = Donor # 90, 20 μg/ml oligonucleotide, 100 μg/ml PMXB, 24 hours
[16] = Donor # 91, 20 μg/ml oligonucleotide, 100 μg/ml PMXB, 24 hours
[17] = Donor # 94, 20 μg/ml oligonucleotide, 100 μg/ml PMXB, 24 hours
[18] = Donor # 95, 20 μg/ml oligonucleotide, 100 μg/ml PMXB, 24 hours
[19] = Mean (Table 4), Controls, 20 μg/ml oligonucleotide, 100 μg/ml polymyxin
[20] = Mean (Table 5), no Time given, 20 μg/ml oligonucleotide
[21] = Mean (Table 6), no Time given, 20 μg/ml oligonucleotide, 100 μg/ml polymyxin
[22] = Mean of donors (Table 2), 20 μg/ml oligonucleotide, 100 μg/ml PMXB, 24 hours
[23] = Table 3, Donor 1, PMXB 100 μg/ml, AMTB 10 μg/ml, serum containing medium
[24] = Table 3, Donor 2, PMXB 100 μg/ml, AMTB 10 μg/ml, serum containing medium
[25] = Table 3, Mean, PMXB 100 μg/ml, AMTB 10 μg/ml, serum containing medium
[26] = Table 9, Mean, 20 μg/ml oligonucleotide, 100 μg/ml polymyxin
[27] = Table 9, donor 149, 20 μg/ml oligonucleotide, 100 μg/ml polymyxin
[28] = Table 9, donor 208, 20 μg/ml oligonucleotide, 100 μg/ml polymyxin
[29] = Table 10, donor 1, 20 μg/ml oligonucleotide, 100 μg/ml polymyxin derivative added separately, 24 hours
[30] = Table 10, donor 2, 20 μg/ml oligonucleotide, 100 μg/ml polymyxin derivative added separately, 24 hours
[31] = Table 10, donor 3, 20 μg/ml oligonucleotide, 100 μg/ml polymyxin derivative added separately, 24 hours
[32] = Table 10, donor 4, 20 μg/ml oligonucleotide, 100 μg/ml polymyxin derivative added separately, 24 hours
[33] = Table 10, donor 5, 20 μg/ml oligonucleotide, 100 μg/ml polymyxin derivative added separately, 24 hours
[34] = Table 10, donor 6, 20 μg/ml oligonucleotide, 100 μg/ml polymyxin derivative added separately, 24 hours
[35] = Table 10, mean of 6 donors, 20 μg/ml oligonucleotide, 100 μg/ml polymyxin derivative added separately, 24 hours
[36] = Effector:Target ratio 12.5:1, donor 2

Substance: 5′-TGACTGTGAACGTTCGAGATGA-3′ [+ISS]
- IFN-α [1, 3]: 224 pg/mL
- IFN-γ [1, 3]: 10 pg/mL
- IFN-α [1, 4]: 277 pg/mL
- IFN-γ [1, 4]: 167 pg/mL
- IFN-α [1, 5]: 135 pg/mL
- IFN-γ [1, 5]: 5 pg/mL
- IFN-α [1, 6]: 109 pg/mL
- IFN-γ [1, 6]: 17 pg/mL
- IFN-Υ [1, 7]: 276 pg/mL
- IFN-α [1, 7]: 9 pg/mL
- IFN-Υ [1, 8]: 20 pg/mL
- IFN-α [1, 8]: 103 pg/mL
- IFN-α [1, 9]: 131 pg/mL
- IFN-γ [1, 9]: 20 pg/mL
- IFN-γ ([1]; Donor # 20, 20 μg/ml oligonucleotide, 100 μg/ml PMXB, 24 hours): 291 pg/mL
- IFN-α [1, 10]: 70 pg/mL
- IFN-γ [1, 10]: 15 pg/mL
- IFN-γ ([1]; Donor # 75, 20 μg/ml oligonucleotide, 100 μg/ml PMXB, 24 hours): 22 pg/mL
- IFN-α [1, 11]: 358 pg/mL
- IFN-γ [1, 11]: 182 pg/mL
- IFN-α [1, 12]: 212 pg/mL
- IFN-γ [1, 12]: 341 pg/mL
- IFN-α [1, 13]: 264 pg/mL
- IFN-γ [1, 13]: 367 pg/mL
- IFN-α [1, 14]: 207 pg/mL
- IFN-γ [1, 14]: 100 pg/mL
- IFN-α [1, 15]: 119 pg/mL
- IFN-γ [1, 15]: 13 pg/mL
- IFN-α [1, 16]: 0 pg/mL
- IFN-γ [1, 16]: 27 pg/mL
- IFN-α [1, 17]: 274 pg/mL
- IFN-γ [1, 17]: 30 pg/mL
- IFN-α [1, 18]: 26 pg/mL
- IFN-γ [1, 18]: 6 pg/mL
- IFN-γ ([1]; Donor # 96, 20 μg/ml oligonucleotide, 100 μg/ml PMXB, 24 hours): 49 pg/mL
- IFN-γ ([1]; Donor # 97, 20 μg/ml oligonucleotide, 100 μg/ml PMXB, 24 hours): 23 pg/mL
- IFN-α [1, 19]: 122 pg/mL
- IFN-γ [1, 19]: 11 pg/mL
- IFN-α [1, 20]: 250 pg/mL
- IFN-γ [1, 20]: 88 pg/mL
- IFN-Υ [1, 21]: 148 pg/mL
- IFN-α [1, 21]: 56 pg/mL
- IFN-α [1, 22]: 166 pg/mL
- IFN-γ [1, 22]: 106 pg/mL
- IFN-α [1, 23]: 11 pg/mL
- IFN-γ [1, 23]: 29 pg/mL
- IFN-α [1, 24]: 2 pg/mL
- IFN-γ [1, 24]: 0 pg/mL
- IFN-α [1, 25]: 6 pg/mL
- IFN-γ [1, 25]: 15 pg/mL
- IFN-Υ [1, 26]: 76 pg/mL
- IFN-α [1, 26]: 41 pg/mL
- IFN-Υ [1, 27]: 78 pg/mL
- IFN-α [1, 27]: 59 pg/mL
- IFN-Υ ([1]; Table 9, donor 206, 20 μg/ml oligonucleotide, 100 μg/ml polymyxin): 5 pg/mL
- IFN-Υ [1, 28]: 146 pg/mL
- IFN-α [1, 28]: 32 pg/mL
- IFN-α ([1]; Table 9, donor 209, 20 μg/ml oligonucleotide, 100 μg/ml polymyxin): 32 pg/mL
- IFN-α [1, 29]: 263 pg/mL
- IFN-γ [1, 29]: 13 pg/mL
- IFN-α [1, 30]: 225 pg/mL
- IFN-γ [1, 30]: 3 pg/mL
- IFN-α [1, 31]: 52 pg/mL
- IFN-γ [1, 31]: 2 pg/mL
- IFN-α [1, 32]: 52 pg/mL
- IFN-γ [1, 32]: 2 pg/mL
- IFN-α [1, 33]: 218 pg/mL
- IFN-γ [1, 33]: 99 pg/mL
- IFN-α [1, 34]: 26 pg/mL
- IFN-γ [1, 34]: 14 pg/mL
- IFN-α [1, 35]: 139 pg/mL
- IFN-γ [1, 35]: 22 pg/mL
- 51Cr released from K562 target cells, cpm1 (K562 cells; Effector:Target ratio 6:1, donor 1): 6935 cpm
- 51Cr released from K562 target cells, cpm2 (K562 cells; [36]): 8370 cpm
- 51Cr released from K562 target cells, mean (K562 cells; [36]): 8162 cpm
- 51Cr released from K562 target cells, cpm3 (K562 cells; Effector:Target ratio 25:1, donor 1): 8048 cpm
- Relative Cycle Thresholds (CTs), 12/15-lipoxg (mouse lung cells; gene 12/15-lipoxg): 65
- Relative Cycle Thresholds (CTs), BCA-1 (mouse lung cells; gene BCA-1): 5026
- Relative Cycle Thresholds (CTs), CD80 (mouse lung cells; gene CD80): 205
- Relative Cycle Thresholds (CTs), CD86 (mouse lung cells; gene CD86): 103
- Relative Cycle Thresholds (CTs), COX-1 (mouse lung cells; gene COX-1): 2145
- Relative Cycle Thresholds (CTs), COX-2 (mouse lung cells; gene COX-2): 446
- Relative Cycle Thresholds (CTs), Eotaxin (mouse lung cells; gene Eotaxin): 273
- Relative Cycle Thresholds (CTs), G-CSF (mouse lung cells; gene G-CSF): 92
- Relative Cycle Thresholds (CTs), IFN-α2 (mouse lung cells; gene IFN-α2): 3
- Relative Cycle Thresholds (CTs), IFN-γ (mouse lung cells; gene IFN-γ): 25
- Relative Cycle Thresholds (CTs), IL-1a (mouse lung cells; gene IL-1a): 7523
- Relative Cycle Thresholds (CTs), IL-1b (mouse lung cells; gene IL-1b): 1643
- Relative Cycle Thresholds (CTs), IL-6 (mouse lung cells; gene IL-6): 755
- Relative Cycle Thresholds (CTs), IL-10 (mouse lung cells; gene IL-10): 4
- Relative Cycle Thresholds (CTs), IL-12p40 (mouse lung cells; gene IL-12p40): 6
- Relative Cycle Thresholds (CTs), IL-23 (mouse lung cells; gene IL-23): 266
- Relative Cycle Thresholds (CTs), IP-10 (mouse lung cells; gene IP-10): 23436
- Relative Cycle Thresholds (CTs), LPTN (mouse lung cells; gene LPTN): 976
- Relative Cycle Thresholds (CTs), MCP-1 (mouse lung cells; gene MCP-1): 5265
- Relative Cycle Thresholds (CTs), MCP-3 (mouse lung cells; gene MCP-3): 3905
- Relative Cycle Thresholds (CTs), MDC (mouse lung cells; gene MDC): 2869
- Relative Cycle Thresholds (CTs), MIG (mouse lung cells; gene MIG): 3411
- Relative Cycle Thresholds (CTs), MIP-1a (mouse lung cells; gene MIP-1a): 6156
- Relative Cycle Thresholds (CTs), MIP-1b (mouse lung cells; gene MIP-1b): 12918
- Relative Cycle Thresholds (CTs), MIP-2 (mouse lung cells; gene MIP-2): 1792
- Relative Cycle Thresholds (CTs), MIP-3a (mouse lung cells; gene MIP-3a): 885
- Relative Cycle Thresholds (CTs), MIP-3b (mouse lung cells; gene MIP-3b): 2030
- Relative Cycle Thresholds (CTs), MMP-8 (mouse lung cells; gene MMP-8): 1505
- Relative Cycle Thresholds (CTs), NOS2 (mouse lung cells; gene NOS2): 308
- Relative Cycle Thresholds (CTs), TARC (mouse lung cells; gene TARC): 1505
- Relative Cycle Thresholds (CTs), TCA-3 (mouse lung cells; gene TCA-3): 16
- Relative Cycle Thresholds (CTs), TNF-α (mouse lung cells; gene TNF-α): 7170
- BCDA-2/IFN-α d.p. % ([2]; donor 1): 0.01%
- BCDA-2/IFN-α d.p. % ([2]; donor 2): 0.03%
- BCDA-2/IFN-α d.p. % ([2]; mean): 0.02%
